In PubChem BioAssay (NCI):
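How tested: cells in 96-well plates exposed to compound for 48 hours at five concentrations. The concentration for 50% growth inhibition is given as GI50. TGI marks complete inhibition of growth.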

Key:
Experiment in all cases: NCI tumour cell line growth inhibition, 48 h
[1] = tested on: HCT-15 colon
[2] = tested on: IGROV1 ovarian
[3] = tested on: SF-268 CNS
[4] = tested on: SW-620 colon
[5] = tested on: COLO 205 colon
[6] = tested on: CAKI-1 renal
[7] = tested on: U251 CNS
[8] = tested on: NCI-H226 lung
[9] = tested on: SF-539 CNS
[10] = tested on: PC-3 prostate

| SMILES | TGI [1] | TGI [2] | TGI [3] | TGI [4] | TGI [5] | TGI [6] | TGI [7] | TGI [8] | TGI [9] | GI50 [10] | TGI [10] | GI50 [2] | GI50 [6] | GI50 [9] | GI50 [1] | GI50 [3] | GI50 [4] | GI50 [5] | GI50 [7] | GI50 [8] |
| --- | --- | --- | --- | --- | --- | --- | --- | --- | --- | --- | --- | --- | --- | --- | --- | --- | --- | --- | --- | --- |
| COC(=O)C12CC(C3CC31)C1CC12 (stereo not given) | > 100 µM | > 100 µM | > 100 µM | > 100 µM | > 100 µM | > 100 µM | > 100 µM | > 100 µM |  |  |  |  |  |  |  |  |  |  |  |  |
| Cc1ccc(NC(=O)CCC(=O)C2CC(=O)CC/C2=N\NC(=O)c2cc3ccccc3cc2O)cc1C (stereo not given) | > 100 µM | 66.9 µM | > 100 µM | > 100 µM | 33.3 µM | > 100 µM | > 100 µM | 97.2 µM | 87.3 µM |  |  |  |  |  |  |  |  |  |  |  |
| O=c1c2ccccc2nc(-c2ccccc2)n1NCC1(O)OCC(O)C(O)C1O (stereo not given) | > 100 µM | > 100 µM | > 100 µM | > 100 µM | > 100 µM | > 100 µM | > 100 µM | > 100 µM | > 100 µM |  |  |  |  |  |  |  |  |  |  |  |
| COC(=O)/C(C#N)=C1\N=NNN1CCCN1CCOCC1 | > 100 µM | > 100 µM |  | > 100 µM | > 100 µM | > 100 µM | > 100 µM | > 100 µM | > 100 µM |  |  |  |  |  |  |  |  |  |  |  |
| Cc1nnc([S-])s1.[Au+].c1ccc([PH+](c2ccccc2)c2ccccc2)cc1 |  | 2.97 µM |  |  |  | 3 µM |  |  | 3 µM | 1.52 µM | 2.92 µM | 1.53 µM | 1.64 µM | 1.63 µM |  |  |  |  |  |  |
| O=C1OCC(C(=O)c2cccc(O)c2)C1=O (stereo not given) | > 100 µM | > 100 µM | > 100 µM | > 100 µM | > 100 µM | > 100 µM | > 100 µM | > 100 µM | > 100 µM |  |  |  |  |  |  |  |  |  |  |  |
| COC(=O)c1c(C)oc2ccc(OC(C)=O)cc12 | > 100 µM | > 100 µM | > 100 µM | > 100 µM | > 100 µM | > 100 µM | > 100 µM | > 100 µM | > 100 µM |  |  |  |  |  |  |  |  |  |  |  |
| COc1ccc(C2=CC(c3cc(OC)c(OC)c(OC)c3)n3ncnc3N2)cc1 (stereo not given) | > 100 µM | 31.1 µM | 29.7 µM | > 100 µM | 0.16 µM |  | 29.6 µM | 71 µM |  | 0.0536 µM | > 100 µM | 0.0912 µM |  |  | 0.042 µM | 0.0833 µM | 0.0484 µM | 0.0335 µM | 0.0551 µM | 7.99 µM |
| O=C1c2cccnc2C(=O)c2c1c(C(=O)OCCCN1CCOCC1)c1ccccn21 |  | 3.2 µM | 10.7 µM | 1.75 µM | 0.308 µM | 0.0509 µM |  |  | 0.0372 µM | 0.0147 µM | 4.94 µM | 0.0163 µM | < 0.01 µM | < 0.01 µM |  | < 0.01 µM | < 0.01 µM | 0.0553 µM |  |  |
| CC(CC(=O)O)(CC(=O)O)C(=O)O | > 100 µM | > 100 µM | > 100 µM | > 100 µM | > 100 µM | > 100 µM | > 100 µM |  | > 100 µM |  | > 100 µM |  |  |  |  |  |  |  |  |  |
| CN1CC2(CCCCC2)C(O)C12C=CCCC2 (stereo not given) | > 100 µM | > 100 µM | > 100 µM | > 100 µM | > 100 µM | > 100 µM | > 100 µM | > 100 µM | > 100 µM |  |  |  |  |  |  |  |  |  |  |  |
| Cc1cc(N(CCC#N)S(=O)(=O)c2ccccc2)ccc1C=O | > 100 µM | > 100 µM | > 100 µM | > 100 µM | > 100 µM | > 100 µM | > 100 µM | > 100 µM | > 100 µM |  |  |  |  |  |  |  |  |  |  |  |
| CCOC(=O)CCC1(C(=O)OC)CCCC1=O (stereo not given) |  | > 100 µM | > 100 µM | > 100 µM | > 100 µM |  | > 100 µM |  | > 100 µM |  |  |  |  |  |  |  |  |  |  |  |
| COC(=O)C(CC=O)C(=O)C(=O)Nc1cccc(C(F)(F)F)c1 (stereo not given) | > 100 µM | > 100 µM | > 100 µM | > 100 µM |  | > 100 µM | > 100 µM | > 100 µM | > 100 µM |  |  |  |  |  |  |  |  |  |  |  |
| O=c1oc(-c2ccc(O)c(O)c2)cc2cc(O)cc(O)c12 | > 100 µM | 43.2 µM | > 100 µM | > 100 µM | > 100 µM | > 100 µM | > 100 µM |  | 91.5 µM | 31.6 µM | > 100 µM | 2.19 µM | 33.6 µM | 26.7 µM | 57.1 µM | 32.4 µM | 35.2 µM | 41.8 µM | 48.5 µM |  |
| Oc1cc2cc(-c3ccccc3)[nH]c2c2ccccc12 | > 100 µM | > 100 µM | > 100 µM | > 100 µM | > 37.8 µM | 90.8 µM | > 100 µM | > 100 µM | 97.1 µM |  |  |  |  |  |  |  |  |  |  |  |
| c1ccc2c(c1)CCCc1cc3ccccc3nc1-2 | > 100 µM | > 100 µM | > 100 µM | > 100 µM | > 100 µM | > 100 µM | > 100 µM |  | > 100 µM |  |  |  |  |  |  |  |  |  |  |  |
| CC1OC(=O)N(CCCC=C2SCCCS2)C1=O (stereo not given) | > 100 µM | > 100 µM | > 100 µM | > 100 µM | > 100 µM |  | > 100 µM | > 100 µM | > 100 µM |  |  |  |  |  |  |  |  |  |  |  |
| CCOC(=O)c1cnc2[nH]c(=O)c3ccccc3n2c1=O | > 100 µM | > 100 µM | > 100 µM | > 100 µM | > 100 µM | > 100 µM | > 100 µM | > 100 µM | > 100 µM |  |  |  |  |  |  |  |  |  |  |  |
| CC(=O)[CH-]C(=O)c1ccccc1.CC(=O)[CH-]C(=O)c1ccccc1.[O]=[U+2]=[O] | > 100 µM | > 100 µM | > 100 µM | > 100 µM | 78.5 µM | > 100 µM | > 100 µM |  |  |  |  | 55 µM | 39.2 µM |  | 35.1 µM | 58.2 µM | 35.3 µM | 28.4 µM | 35.5 µM |  |
| O=C(CCCCCCCCC(=O)OCC1OC(n2cnc3c(=O)[nH]cnc32)C(O)C1O)OCC1OC(n2cnc3c(=O)[nH]cnc32)C(O)C1O (stereo not given) | > 100 µM | > 100 µM | > 100 µM | > 100 µM | > 100 µM | > 100 µM | > 100 µM | > 100 µM | > 100 µM |  |  |  |  |  |  |  |  |  |  |  |
| O=C(CCCCCCCCCCc1ccccc1)c1c(O)cccc1O | 38.7 µM | 60.5 µM | 57.8 µM | 34.7 µM | 56.5 µM | 74.8 µM | 38.1 µM | 41.8 µM | 34.8 µM |  |  |  |  |  |  |  |  |  |  |  |
